Results taken from patent publication US20070092577A1, “Dietary calcium for reducing the production of reactive oxygen species” (University of Tennessee Research Foundation, priority 2005, published 2007).

Key:
[1] = tested on: [Ca^2+]i in cultured 3T3-L1 adipocytes; assay: Intracellular calcium in cultured adipocytes (fura-2); assay type: cell-based, murine; details: 4 hours
Procedure: 3T3-L1 preadipocytes were incubated at a density of 8000 cells/cm^2 (10 cm^2 dish) and grown in Dulbecco's modified Eagle's medium (DMEM) containing 10% FBS and antibiotics (adipocyte medium) at 37° C. in 5% CO2 in air. Confluent preadipocytes were induced to differentiate with a standard differentiation medium consisting of DMEM-F 10 (1:1, vol/vol) medium supplemented with 1% FBS, 1 μM dexamethasone, IBMX (0.5 mM) and antibiotics (1% Penicillin-Streptomycin). Preadipocytes were maintained in this differentiation medium for 3 days and subsequently cultured in adipocyte medium. Cultures were re-fed every 2-3 days to allow 90% of cells to reach full differentiation before conducting chemical treatment. Chemicals were freshly diluted in adipocyte medium before treatment. Cells were washed with fresh adipocyte medium, re-fed with medium containing the different treatments, and incubated at 37° C. in 5% CO2 in air before analysis. Cell viability was measured via trypan blue exclusion. [Ca^2+]i in adipocytes was measured using a fura-2 dual-wavelength fluorescence imaging system. Cells were plated in 35-mm dishes […]). […] Cells were loaded with fura-2 acetoxymethyl ester (fura-2 AM) (10 μmol/L) in the same buffer for 2 h at 37° C. in a dark incubator with 5% CO2. To remove extracellular dye, cells were rinsed with HBSS three times and then post-incubated at room temperature for an additional 1 h for complete hydrolysis of cytoplasmic fura-2 AM. The dishes with dye-loaded cells were mounted on the stage of Nikon TMS-F fluorescence inverted microscope with a Cohu model 4915 charge-coupled device (CCD) camera. Fluorescent images were captured alternatively at excitation wavelengths of 340 and 380 nm with an emission wavelength of 520 nm. After establishment of a stable baseline, the responses to 1α, 25-(OH)2-D3 was determined. [Ca^2+]i was calculated using a ratio equation as described previously. Each analysis evaluated responses of 5 representative whole cells. Images were analyzed with […]2 version 4.62 imaging software (Intracellular Imaging, Cincinnati, Ohio). […]

[2] = tested on: adiponectin; assay: Adiponectin expression in differentiated 3T3-L1 adipocytes; assay type: cell-based, mouse; details: 100 nmol/L H2O2 or 1 μmol/L α±tocopherol, 48 h
Procedure: (§1) 3T3-L1 pre-adipocytes were incubated at a density of 8000 cells/cm^2 (10 cm^2 dish) and grown in Dulbecco's modified Eagle's medium (DMEM) containing 10% FBS and antibiotics (adipocyte medium) at 37° C. in 5% CO2 in air. Confluent pre-adipocytes were induced to differentiate with a standard differentiation medium consisting of DMEM-F10 (1:1, vol/vol) medium supplemented with 1% fetal bovine serum (FBS), 1 μM dexamethasone, isobutylmethylxanthine (IBMX) (0.5 mM) and antibiotics (1% Penicillin-Streptomycin). Pre-adipocytes were maintained in this differentiation medium for 3 days and subsequently cultured in adipocyte medium. Cultures were re-fed every 2-3 days to allow 90% cells to reach fully differentiation before conducting chemical treatment. […] Cell viability was measured via trypan blue exclusion. Adipocyte and muscle 18s, TNFα, IL-6, IL-8, IL-15 and adiponectin were quantitatively measured using a smart cycler real-time PCR system (Cepheid, Sunnyvale, Calif.) with a TaqMan 1000 Core Reagent Kit (Applied Biosystems, Branchburg, N.J.). […] Reactions of quantitative RT-PCR for standards and unknown samples were also performed according to the instructions of Smart Cycler System (Cepheid, Sunnyvale, Calif.) and TaqMan Real Time PCR Core Kit (Applied Biosystems, Branchburg, N.J.). The mRNA quantitation for each sample was further normalized using the corresponding 18s quantitation.

[3] = tested on: IL-15; assay: IL-15 expression in differentiated 3T3-L1 adipocytes; assay type: cell-based, mouse
Procedure: as §1

[4] = tested on: MIF; assay: MIF expression in mouse (3T3-L1) adipocytes; assay type: cell-based; details: calcitriol 10 nmol/L, 48 hours
Procedure: (§2) RAW 264 macrophages and 3T3-L1 preadipocytes (American Type Culture Collection) were incubated at a density of 8000 cells/cm2 (10 cm2 dish) and grown in Dulbecco's modified Eagle's medium (DMEM) containing 10% FBS and antibiotics (adipocyte medium) at 37° C. in 5% CO2 in air. Confluent 3T3-L1 preadipocytes were induced to differentiate with a standard differentiation medium consisting of DMEM-F10 (1:1, vol/vol) medium supplemented with 1% FBS, 1 μM dexamethasone, IBMX (0.5 mM) and antibiotics (1% Penicillin-Streptomycin). Preadipocytes were maintained in this differentiation medium for 3 days and subsequently cultured in adipocyte medium. […]
(§3) Cells were washed with fresh adipocyte medium, re-fed with medium containing the indicated treatments, and incubated at 37° C. in 5% CO2 for 48 hours before analysis. Cell viability was measured via trypan blue exclusion.
(§4) Adipocyte and muscle 18s, CD14, TNFα, MIP, M-CSF, IL-6 and MCP-1 were quantitatively measured using a Smart Cycler Real Time PCR System (Cepheid, Sunnyvale, Calif.) with a TaqMan 1000 Core Reagent Kit (Applied Biosystems, Branchburg, N.J.). […] Reactions of quantitative RT-PCR for standards and unknown samples were also performed according to the instructions of Smart Cycler System (Cepheid, Sunnyvale, Calif.) and TaqMan Real Time PCR Core Kit (Applied Biosystems, Branchburg, N.J.). […]

[5] = tested on: CD14; assay: CD14 expression in mouse (3T3-L1) adipocytes; assay type: cell-based; details: calcitriol 10 nmol/L, 48 hours
Procedure: as §2, §3, §4

OO [H2O2, hydrogen peroxide]
increase in [Ca^2+]i ([1]; H2O2 100 nmol/L or glucose 30 mmol/L, p<0.001): 5 fold | effect on adiponectin production [2]: without significant effect | effect on IL-15 expression ([3]; 100 nmol/L H2O2, 48 h): no direct effect

C=C1/C(=C\C=C2/CCC[C@]3(C)[C@@H]([C@H](C)CCCC(C)(C)O)CC[C@@H]23)C[C@@H](O)C[C@@H]1O [calcitriol, 1, 25-Dihydroxyvitamin D]
increase of MIF expression [4]: 50% | increase of CD14 expression [5]: 45%

Cc1c(C)c2c(c(C)c1O)CC[C@@](C)(CCC[C@H](C)CCC[C@H](C)CCCC(C)C)O2 [α-tocopherol]
effect on H2O2 induced increase in [Ca^2+]i ([1]; α-tocopherol 1 μmol/L with H2O2 100 nmol/L): reversed | effect on glucose induced increase in [Ca^2+]i ([1]; α-tocopherol 1 μmol/L with glucose 30 mmol/L): partially blocked | effect on adiponectin production [2]: increased | increase of IL-15 as compared to H2O2-treated cells ([3]; 1 μmol/L α±tocopherol added to 100 nmol/L H2O2, 48 h, P=0.043): 2.2 fold
